Series [1] is described as follows: solid state stability: storage at 25° C./60% RH and 40° C./75% RH for 1 week, XRPD and HPLC purity. In kind it is physicochemical. The conditions noted are these: for Purity (area %): HPLC purity; for Form change: XRPD; for HPLC purity change after storage: 40° C./75% RH for 1 week. The method, then: For XRPD analysis, Empyrean X-ray powder diffractometer from Malvern Panalytical was used. Sample was spread on the middle of a zero-background Si holder.
XRPD and HPLC purity was performed for stability samples to assess the physical and chemical stability.

The nature of series [2]: hygroscopicity by DVS. The series is classed as physicochemical. As to the method: Hygroscopicity of Freeform Form A, HCl Form A, Besylate Form B, and Gentisate Form A was evaluated by DVS.
Series [3] deals with sodium-dependent serotonin transporter (SERT) (Homo sapiens, UniProt P31645). Conditions: reported for the naturally occurring compound from Sceletium tortuosum; cited from earlier work.
A short description of series [4]: kinetic solubility in H2O and bio-relevant media (SGF, FaSSIF, FeSSIF) at 37° C. Conditions: thermodynamic from solid; for solubility: 37 °C, read-out: observed solubility; for solubility kinetic / solubility at 1 h / solubility at 2 h / solubility at 4 h / solubility at 24 h: 37° C.; for solubility kinetic: at 1, 2, 4 and 24 hrs; for solubility at 1 h / solubility at 2 h / solubility at 4 h / solubility at 24 h: read-out: S: Solubility (mg/mL), calculated by freebase. In kind it is physicochemical. The method, then: • 1. Add about 40 mg of samples and 4 mL of corresponding medium into a 5-mL glass vial. The loading concentration was ˜10 mg/mL (calculated by freebase). • 2. Roll at 37° C. (˜25 rpm). Sample at 1, 2, 4 and 24 hrs. • 3. At each time-point, sample 0.8 mL of solution or suspension into a centrifuge tube prior to centrifugation (12000 rpm, 37° C., 5 min) and filtration through 0.45 μm PTFE membrane. • 4. Test pH and concentration for the filtrate. Analyze residual solids by XRPD.

The nature of series [5]: solubility of Freeform Form A in solvents. In kind it is physicochemical. The text has this:
Freeform Form A was a gum material. The material had the solubility shown below:

The source of these data is patent US20250026718A1, “SOLID FORMS OF MESEMBRINE AND THERAPEUTIC USES THEREOF” (Sensorium Therapeutics, Inc., priority 2022, published 2025).

For orientation: kinetic solubility means the concentration staying in solution when a stock, usually in DMSO, is diluted into the medium.

The structures appear in SMILES notation. Values after ≈ are worked out from the molar mass of the structure shown. “Also recorded” adds a separate entry of the source. Where two headings read alike, the source gives them in different places. Where only a bound is given, the exact number is not on record here.

sodium-dependent serotonin transporter (SERT), sequence (P31645 whole entry, species assumed): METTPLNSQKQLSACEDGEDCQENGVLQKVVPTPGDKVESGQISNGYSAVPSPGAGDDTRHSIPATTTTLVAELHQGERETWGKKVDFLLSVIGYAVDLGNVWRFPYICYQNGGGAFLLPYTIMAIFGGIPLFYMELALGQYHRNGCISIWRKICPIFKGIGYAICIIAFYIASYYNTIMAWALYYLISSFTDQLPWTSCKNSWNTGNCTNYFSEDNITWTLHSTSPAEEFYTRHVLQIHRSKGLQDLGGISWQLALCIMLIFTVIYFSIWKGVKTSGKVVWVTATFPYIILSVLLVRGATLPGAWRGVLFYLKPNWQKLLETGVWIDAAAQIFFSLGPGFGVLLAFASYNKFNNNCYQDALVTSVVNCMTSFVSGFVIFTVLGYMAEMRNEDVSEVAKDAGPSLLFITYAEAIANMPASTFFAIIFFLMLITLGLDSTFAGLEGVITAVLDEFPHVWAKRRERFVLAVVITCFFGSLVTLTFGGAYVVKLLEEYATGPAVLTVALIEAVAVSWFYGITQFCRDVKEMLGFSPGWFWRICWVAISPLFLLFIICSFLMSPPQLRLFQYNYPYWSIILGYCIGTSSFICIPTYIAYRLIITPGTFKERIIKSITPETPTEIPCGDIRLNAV

Consider `COc1ccc([C@@]23CCC(=O)C[C@@H]2N(C)CC3)cc1OC.O=C(O)c1cc(O)ccc1O` [Gentisate Form A], for which, in series [1] (25° C./60% RH/open/1 week), the “form change by XRPD after storage” value is “no form change”, the “Purity (area %)” value worked out at 97.18 area % and the Form change result is on record as “No”. Also, in series [1], the “HPLC purity change after storage” value is given as “slight purity decrease”. In addition, in series [1] (40° C./75% RH/open/1 week), the “form change by XRPD after storage” value is “no form change”, the “Purity (area %)” value was 97.11 area % and the Form change entry is given as “No”. In addition, the “Purity (area %)” value in series [1] (Initial) was found to be 97.22 area %. In series [2] (DVS), the “Water uptake at 25° C./80% RH (wt %)” value is given as 0.17 wt % and the “water uptake at 25° C./80% RH” value is reported as 0.17%. For the same compound, the “Form change by XRPD after DVS test” value in series [2] was “No form change and No”.

For the compound `COc1ccc(C23CCC(=O)CC2N(C)CC3)cc1OC.Cl` (stereo not shown) [HCl Form A], in series [1] (25° C./60% RH/open/1 week), the “form change by XRPD after storage” value is on record as “no form change”, the “Purity (area %)” value is listed as 97.06 area % and the Form change entry was “No”. Besides, the “HPLC purity change after storage” value in series [1] is “slight purity decrease”. Also, in series [1] (40° C./75% RH/open/1 week), the “form change by XRPD after storage” value is recorded as “no form change”, the “Purity (area %)” value is reported as 97.00 area % and the Form change entry is on record as “No”. Moreover, the “Purity (area %)” value in series [1] (Initial) is 97.15 area %. Moreover, in series [2] (DVS), the “Water uptake at 25° C./80% RH (wt %)” value was found to be 0.72 wt % and the “water uptake at 25° C./80% RH” value stood at 0.72%. The “water uptake at 95% RH” value in series [2] (DVS, 95% RH) is recorded as 18.46%. Also, the “Form change by XRPD after DVS test” value in series [2] is given as “No form change”. In series [2] (listed as HCl salt Form A), the “Form change by XRPD after DVS test” value was “No form change and No”.

For the compound `COc1ccc([C@@]23CCC(=O)C[C@@H]2N(C)CC3)cc1OC` [Compound 1, 3a-(3,4-dimethoxyphenyl)-octahydro-1-methyl-6H-indol-6-one], the “serotonin (5-HT) uptake inhibitory activity” value in series [3] was “serotonin (5-HT) uptake inhibitory activity”.

Take `COc1ccc([C@@]23CCC(=O)C[C@@H]2N(C)CC3)cc1OC` [Freeform Form A]: the “form change by XRPD after storage” value in series [1] (25° C./60% RH/open/1 week) and in series [1] (40° C./75% RH/open/1 week) was “amorphous” in each case. Further, the “Purity (area %)” value came to 98.14 area % in series [1] (25° C./60% RH/open/1 week), 98.01 area % in series [1] (40° C./75% RH/open/1 week) and 98.15 area % in series [1] (Initial). In addition, the Form change entry in series [1] (25° C./60% RH/open/1 week) and in series [1] (40° C./75% RH/open/1 week) was “Amorphous” each time. Besides, the “HPLC purity change after storage” value in series [1] is “slight purity decrease”. For the same compound, in series [2], the “Form change by XRPD after DVS test” value is on record as “amorphous; also recorded: Amorphous*”. Further, the “behaviour during DVS test” value in series [2] (during DVS test) is on record as “deliquesced”. Further, the solubility in series [4] (simulated gastric fluid, in SGF) is more than 8300 µg/mL; in series [4] (in FaSSIF), more than 8300 µg/mL; in series [4] (in FeSSIF), more than 8300 µg/mL; in series [4] (water, in H2O), more than 8300 µg/mL; in series [5] (1,4-Dioxane, organic solvent or mixture) it was more than 40000 µg/mL; in series [5] (2-MeTHF, organic solvent or mixture), more than 40000 µg/mL. For the same compound, the solubility in series [5] (ACN, organic solvent or mixture) is more than 44000 µg/mL; in series [5] (Acetone, organic solvent or mixture), more than 40000 µg/mL; in series [5] (CPME, organic solvent or mixture) it was more than 40000 µg/mL; in series [5] (DCM, organic solvent or mixture), more than 42000 µg/mL; in series [5] (EtOAc, organic solvent or mixture), 19000 to 38000 µg/mL (≈ 65.7 to 131 mM); in series [5] (EtOH, organic solvent or mixture) it was more than 42000 µg/mL. Besides, the solubility in series [5] (H2O, water) was more than 42000 µg/mL; in series [5] (IPA, organic solvent or mixture), more than 38000 µg/mL; in series [5] (IPAc, organic solvent or mixture), more than 36000 µg/mL; in series [5] (MIBK, organic solvent or mixture) it was more than 38000 µg/mL; in series [5] (MTBE, organic solvent or mixture) it was more than 40000 µg/mL; in series [5] (MeOH, organic solvent or mixture) it was more than 36000 µg/mL. For the same compound, in series [5] (THF, organic solvent or mixture), the solubility was more than 44000 µg/mL. Also, the solubility (kinetic) was more than 8300 µg/mL in series [4] (simulated gastric fluid, SGF); more than 8300 µg/mL in series [4] (FaSSIF); more than 8300 µg/mL in series [4] (FeSSIF); more than 8300 µg/mL in series [4] (water, H2O). The solubility at 1 h in series [4] (simulated gastric fluid, SGF) was more than 8.6 mg/mL; in series [4] (FaSSIF) it was more than 8.7 mg/mL; in series [4] (FeSSIF), more than 8.7 mg/mL; in series [4] (water, H2O) it was more than 9.1 mg/mL. In addition, the solubility at 2 h was more than 9.2 mg/mL in series [4] (simulated gastric fluid, SGF); more than 8.7 mg/mL in series [4] (FaSSIF); more than 9.8 mg/mL in series [4] (FeSSIF); more than 9.3 mg/mL in series [4] (water, H2O). Besides, the solubility at 4 h in series [4] (simulated gastric fluid, SGF) was more than 8.4 mg/mL; in series [4] (FaSSIF) it was more than 8.3 mg/mL; in series [4] (FeSSIF) it was more than 9.1 mg/mL; in series [4] (water, H2O), more than 9.4 mg/mL. For the same compound, the solubility at 24 h in series [4] (simulated gastric fluid, SGF) was more than 8.7 mg/mL; in series [4] (FaSSIF) it was more than 8.5 mg/mL; in series [4] (FeSSIF), more than 9.9 mg/mL; in series [4] (water, H2O), more than 9.3 mg/mL.

In the case of `COc1ccc([C@@]23CCC(=O)C[C@@H]2N(C)CC3)cc1OC.O=S(=O)(O)c1ccccc1` [Besylate Form B], in series [1] (25° C./60% RH/open/1 week), the “form change by XRPD after storage” value was “no form change”, the “Purity (area %)” value was 97.16 area % and the Form change result was “No”. The “HPLC purity change after storage” value in series [1] was “slight purity decrease”. For the same compound, in series [1] (40° C./75% RH/open/1 week), the “form change by XRPD after storage” value is “no form change”, the “Purity (area %)” value is given as 97.12 area % and the Form change entry is on record as “No”. Moreover, the “Purity (area %)” value in series [1] (Initial) is given as 97.21 area %. In series [2] (DVS), the “Water uptake at 25° C./80% RH (wt %)” value is given as 0.32 wt % and the “water uptake at 25° C./80% RH” value is recorded as 0.32%. The “Form change by XRPD after DVS test” value in series [2] is “No form change and No”.
